Results published in US10894817B2, “Fatty acid modified urocortin-2 analogs for the treatment of diabetes and chronic kidney disease” (priority 2016, dated 2021).
pEC50: −log10 of the molar value. Starred links: 1 amine or outer side, 2 acyl side, 3 side chain; linkers in the order of their positions; H or OH if unused. Residues, ends and D or L forms follow the SMILES beside them. Groups on a side chain read outwards from the residue. *: point of attachment. γGlu = O=C(O)[C@H](CCC(=O)[*:2])N[*:1]; Palmitoyl = CCCCCCCCCCCCCCCC(=O)*

Molecular target: T1, human CRHR2b (Homo sapiens, UniProt Q13324)
T1 construct: expressed in transfected cells; host or cells: Chinese Hamster Ovary (CHO) cells, transient transfection
T1 sequence (Q13324 1-438 isoform Q13324-2): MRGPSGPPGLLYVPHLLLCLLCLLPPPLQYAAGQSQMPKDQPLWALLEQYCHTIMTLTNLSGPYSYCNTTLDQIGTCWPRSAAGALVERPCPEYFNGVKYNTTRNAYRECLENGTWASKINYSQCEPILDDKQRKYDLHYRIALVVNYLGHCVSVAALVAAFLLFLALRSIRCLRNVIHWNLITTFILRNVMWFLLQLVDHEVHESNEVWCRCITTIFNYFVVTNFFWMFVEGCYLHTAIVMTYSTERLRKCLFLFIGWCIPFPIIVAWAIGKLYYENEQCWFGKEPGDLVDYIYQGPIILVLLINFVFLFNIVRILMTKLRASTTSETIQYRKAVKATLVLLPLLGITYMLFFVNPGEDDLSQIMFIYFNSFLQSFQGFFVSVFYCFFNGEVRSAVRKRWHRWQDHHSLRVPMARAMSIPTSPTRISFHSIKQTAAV
Experiment: human CRHR2b cell-based cAMP assay
Conditions: cAMP assay; Table 26, compounds of Example 9; read-out: hCRHR2b Average EC50
Experimental: CRHR agonistic activity is measured in a cell-based cAMP assay. Serial dilutions of the test peptides are made in assay buffer containing Hank's Balanced Salt Solution (HBSS, without phenol red) supplemented with 20 mM HEPES and 0.05% lactalbumin enzymatic hydrolysate (LAH) (“assay buffer”). […] A one to three dilution of the test peptides is used in both assays. Receptor over-expressing Chinese Hamster Ovary (CHO) cell line is used for the human CRHR2b assay. […] AF011406.1). Forty-eight hours after the transfection, the cells are centrifuged to remove the culture media and resuspended in fetal bovine serum containing 5% DMSO. They are cryofrozen and stored in vials in liquid nitrogen (20×10^6 cells/ml/vial). On the day of the assay, cells are thawed and resuspended in cold 30 ml culture media supplemented with 20 mM HEPES. The cells are then centrifuged to remove the media and washed once with HBSS supplemented with 20 mM HEPES. Finally, following the last centrifugation, the cells are resuspended in assay buffer. Thirty-thousand cells are used in the human CRHR2b assay for each treatment. The cells are dispensed into Costar 96-well black polystyrene half area EIA/RIA plates (Corning Incorporated, Corning, N.Y.) followed by the addition of the diluted peptides, each at a volume of 20 μL. The agonist induced cAMP levels are detected using a HTRF cAMP Dynamic 2 kit (CisBio, Bedford, Mass.). After incubation at 37° C. for 30 min, the assay is stopped by cell lysis via the addition of 20 μL of d2-labeled cAMP and followed by 20 μL of cryptate-labeled anti-cAMP antibody, as described by the manufacturer. Cellular cAMP (as a result of agonist stimulation) competes with the d2-labeled cAMP for binding to the antibody. HTRF detection is performed on an Envision plate reader (Perkin Elmer Life and Analytical Sciences, Waltham, Mass.) by measuring ratiometric emission at 620 and 665 nm after excitation at 320 nm. The data are converted to picomoles of cAMP using a standard curve obtained from the same assay performed with varying concentrations of unlabeled cAMP. […] The data are analyzed using a Curve Fitting Tool to calculate ED50. Numeric values shown below in Table 1 represent the mean of multiple runs (number of runs shown in parentheses) following the mean value±SEM.

Row | Structure (SMILES) | pEC50
1 | CCCCCCCCCCCCCCCC(=O)N[C@@H](CCC(=O)NCCCC[C@H](NC(=O)[C@H](CCC(N)=O)NC(=O)[C@H](CCCCN)NC(=O)[C@H](CCC(=O)O)NC(=O)[C@H](CCC(N)=O)NC(=O)[C@H](CCC(=O)O)NC(=O)[C@H](CC(C)C)NC(=O)[C@H](CC(C)C)NC(=O)[C@@H](NC(=O)[C@H](CCC(N)=O)NC(=O)[C@H](CC(C)C)NC(=O)[C@H](CC(C)C)NC(=O)CNC(=O)[C@@H](NC(=O)[C@@H]1CCCN1C(=O)[C@@H](NC(=O)[C@H](CC(=O)O)NC(=O)[C@H](CC(C)C)NC(=O)[C@H](CO)NC(=O)[C@H](CC(C)C)NC(=O)[C@@H](NC(=O)[C@@H](N)[C@@H](C)CC)C(C)C)C(C)C)[C@@H](C)CC)[C@@H](C)CC)C(=O)N[C@@H](CCCCN)C(=O)N[C@@H](CCC(=O)O)C(=O)N[C@@H](CCCCN)C(=O)N[C@@H](CCC(N)=O)C(=O)N[C@@H](CCC(N)=O)C(=O)N[C@@H](C)C(=O)N[C@H](C(=O)N[C@H](C(=O)N[C@@H](CC(N)=O)C(=O)N[C@@H](C)C(=O)N[C@@H](CCCNC(=N)N)C(=O)N[C@H](C(=O)N[C@@H](CC(C)C)C(=O)N[C@@H](C)C(=O)N[C@@H](CCCNC(=N)N)C(=O)N[C@H](C(N)=O)C(C)C)[C@@H](C)CC)[C@@H](C)O)[C@@H](C)O)C(=O)O [Compound 27] (H-IVLSLDVPIGLLQILLEQEKQK([γGlu-Palmitoyl])KEKQQATTNARILARV-NH2) | 7.50
2 | CCCCCCCCCCCCCCCC(=O)N[C@@H](CCC(=O)NCCCC[C@H](NC(=O)[C@H](CCC(=O)O)NC(=O)[C@H](CCC(N)=O)NC(=O)[C@H](CCCCN)NC(=O)[C@H](CCC(=O)O)NC(=O)[C@H](CCC(N)=O)NC(=O)[C@H](CCC(=O)O)NC(=O)[C@H](CC(C)C)NC(=O)[C@H](CC(C)C)NC(=O)[C@@H](NC(=O)[C@H](CCC(N)=O)NC(=O)[C@H](CC(C)C)NC(=O)[C@H](CC(C)C)NC(=O)CNC(=O)[C@@H](NC(=O)[C@@H]1CCCN1C(=O)[C@@H](NC(=O)[C@H](CC(=O)O)NC(=O)[C@H](CC(C)C)NC(=O)[C@H](CO)NC(=O)[C@H](CC(C)C)NC(=O)[C@@H](NC(=O)[C@@H](N)[C@@H](C)CC)C(C)C)C(C)C)[C@@H](C)CC)[C@@H](C)CC)C(=O)N[C@@H](CCC(=O)O)C(=O)N[C@@H](CCCCN)C(=O)N[C@@H](CCC(N)=O)C(=O)N[C@@H](CCC(N)=O)C(=O)N[C@@H](C)C(=O)N[C@H](C(=O)N[C@H](C(=O)N[C@@H](CC(N)=O)C(=O)N[C@@H](C)C(=O)N[C@@H](CCCNC(=N)N)C(=O)N[C@H](C(=O)N[C@@H](CC(C)C)C(=O)N[C@@H](C)C(=O)N[C@@H](CCCNC(=N)N)C(=O)N[C@H](C(N)=O)C(C)C)[C@@H](C)CC)[C@@H](C)O)[C@@H](C)O)C(=O)O [Compound 28] (H-IVLSLDVPIGLLQILLEQEKQEK([γGlu-Palmitoyl])EKQQATTNARILARV-NH2) | 7.08
3 | CCCCCCCCCCCCCCCC(=O)N[C@@H](CCC(=O)NCCCC[C@H](NC(=O)[C@H](CCCCN)NC(=O)[C@H](CCC(=O)O)NC(=O)[C@H](CCC(N)=O)NC(=O)[C@H](CCCCN)NC(=O)[C@H](CCC(=O)O)NC(=O)[C@H](CCC(N)=O)NC(=O)[C@H](CCC(=O)O)NC(=O)[C@H](CC(C)C)NC(=O)[C@H](CC(C)C)NC(=O)[C@@H](NC(=O)[C@H](CCC(N)=O)NC(=O)[C@H](CC(C)C)NC(=O)[C@H](CC(C)C)NC(=O)CNC(=O)[C@@H](NC(=O)[C@@H]1CCCN1C(=O)[C@@H](NC(=O)[C@H](CC(=O)O)NC(=O)[C@H](CC(C)C)NC(=O)[C@H](CO)NC(=O)[C@H](CC(C)C)NC(=O)[C@@H](NC(=O)[C@@H](N)[C@@H](C)CC)C(C)C)C(C)C)[C@@H](C)CC)[C@@H](C)CC)C(=O)N[C@@H](CCCCN)C(=O)N[C@@H](CCC(N)=O)C(=O)N[C@@H](CCC(N)=O)C(=O)N[C@@H](C)C(=O)N[C@H](C(=O)N[C@H](C(=O)N[C@@H](CC(N)=O)C(=O)N[C@@H](C)C(=O)N[C@@H](CCCNC(=N)N)C(=O)N[C@H](C(=O)N[C@@H](CC(C)C)C(=O)N[C@@H](C)C(=O)N[C@@H](CCCNC(=N)N)C(=O)N[C@H](C(N)=O)C(C)C)[C@@H](C)CC)[C@@H](C)O)[C@@H](C)O)C(=O)O [Compound 29] (H-IVLSLDVPIGLLQILLEQEKQEKK([γGlu-Palmitoyl])KQQATTNARILARV-NH2) | 7.19

The next compounds have a higher pEC50 than those just listed; values first:

Row | pEC50 | Structure (SMILES)
4 | 7.81 | CCCCCCCCCCCCCCCC(=O)N[C@@H](CCC(=O)NCCCC[C@H](NC(=O)[C@H](CCCCN)NC(=O)[C@H](CCC(=O)O)NC(=O)[C@H](CCC(N)=O)NC(=O)[C@H](CCC(=O)O)NC(=O)[C@H](CC(C)C)NC(=O)[C@H](CC(C)C)NC(=O)[C@@H](NC(=O)[C@H](CCC(N)=O)NC(=O)[C@H](CC(C)C)NC(=O)[C@H](CC(C)C)NC(=O)CNC(=O)[C@@H](NC(=O)[C@@H]1CCCN1C(=O)[C@@H](NC(=O)[C@H](CC(=O)O)NC(=O)[C@H](CC(C)C)NC(=O)[C@H](CO)NC(=O)[C@H](CC(C)C)NC(=O)[C@@H](NC(=O)[C@@H](N)[C@@H](C)CC)C(C)C)C(C)C)[C@@H](C)CC)[C@@H](C)CC)C(=O)N[C@@H](CCC(=O)O)C(=O)N[C@@H](CCCCN)C(=O)N[C@@H](CCC(=O)O)C(=O)N[C@@H](CCCCN)C(=O)N[C@@H](CCC(N)=O)C(=O)N[C@@H](CCC(N)=O)C(=O)N[C@@H](C)C(=O)N[C@H](C(=O)N[C@H](C(=O)N[C@@H](CC(N)=O)C(=O)N[C@@H](C)C(=O)N[C@@H](CCCNC(=N)N)C(=O)N[C@H](C(=O)N[C@@H](CC(C)C)C(=O)N[C@@H](C)C(=O)N[C@@H](CCCNC(=N)N)C(=O)N[C@H](C(N)=O)C(C)C)[C@@H](C)CC)[C@@H](C)O)[C@@H](C)O)C(=O)O [Compound 26] (H-IVLSLDVPIGLLQILLEQEKK([γGlu-Palmitoyl])EKEKQQATTNARILARV-NH2)
5 | 7.91 | CCCCCCCCCCCCCCCC(=O)N[C@@H](CCC(=O)NCCCC[C@H](NC(=O)[C@H](CCC(=O)O)NC(=O)[C@H](CCCCN)NC(=O)[C@H](CCC(=O)O)NC(=O)[C@H](CCC(N)=O)NC(=O)[C@H](CCCCN)NC(=O)[C@H](CCC(=O)O)NC(=O)[C@H](CCC(N)=O)NC(=O)[C@H](CCC(=O)O)NC(=O)[C@H](CC(C)C)NC(=O)[C@H](CC(C)C)NC(=O)[C@@H](NC(=O)[C@H](CCC(N)=O)NC(=O)[C@H](CC(C)C)NC(=O)[C@H](CC(C)C)NC(=O)CNC(=O)[C@@H](NC(=O)[C@@H]1CCCN1C(=O)[C@@H](NC(=O)[C@H](CC(=O)O)NC(=O)[C@H](CC(C)C)NC(=O)[C@H](CO)NC(=O)[C@H](CC(C)C)NC(=O)[C@@H](NC(=O)[C@@H](N)[C@@H](C)CC)C(C)C)C(C)C)[C@@H](C)CC)[C@@H](C)CC)C(=O)N[C@@H](CCC(N)=O)C(=O)N[C@@H](CCC(N)=O)C(=O)N[C@@H](C)C(=O)N[C@H](C(=O)N[C@H](C(=O)N[C@@H](CC(N)=O)C(=O)N[C@@H](C)C(=O)N[C@@H](CCCNC(=N)N)C(=O)N[C@H](C(=O)N[C@@H](CC(C)C)C(=O)N[C@@H](C)C(=O)N[C@@H](CCCNC(=N)N)C(=O)N[C@H](C(N)=O)C(C)C)[C@@H](C)CC)[C@@H](C)O)[C@@H](C)O)C(=O)O [Compound 30] (H-IVLSLDVPIGLLQILLEQEKQEKEK([γGlu-Palmitoyl])QQATTNARILARV-NH2)
